Assay results: PubChem BioAssay (NCI)
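Cells were grown in 96-well plates and exposed to each compound for 48 hours at five concentrations; endpoints were interpolated linearly between bracketing concentrations, or set to the highest concentration if not reached. TGI denotes the concentration required for complete inhibition of growth.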

Key:
Assay in all cases: inhibition of tumour cell growth, NCI panel, 48 h
[1] = test system: HCT-15 colon
[2] = test system: HS 578T breast
[3] = test system: 786-0 renal
[4] = test system: M14 melanoma
[5] = test system: SR leukemia
[6] = test system: MOLT-4 leukemia
[7] = test system: RPMI-8226 leukemia
[8] = test system: SN12C renal
[9] = test system: HL-60(TB) leukemia
[10] = test system: NCI-H226 lung
[11] = test system: RXF 393 renal
[12] = test system: SK-OV-3 ovarian
[13] = test system: SK-MEL-5 melanoma
[14] = test system: SF-539 CNS
[15] = test system: NCI-H23 lung
[16] = test system: NCI-H460 lung
[17] = test system: SF-268 CNS
[18] = test system: A549 NSCLC
[19] = test system: MCF7 breast
[20] = test system: OVCAR-5 ovarian
[21] = test system: CAKI-1 renal
[22] = test system: SNB-19 CNS
[23] = test system: UACC-62 melanoma
[24] = test system: HCT-116 colon
[25] = test system: CCRF-CEM leukemia
[26] = test system: IGROV1 ovarian
[27] = test system: A498 renal
[28] = test system: HOP-62 NSCLC
[29] = test system: OVCAR-8 ovarian
[30] = test system: NCI/ADR-RES ovarian
[31] = test system: SNB-75 CNS
[32] = test system: MALME-3M melanoma
[33] = test system: MDA-N
[34] = test system: SK-MEL-2 melanoma
[35] = test system: HT29 colon
[36] = test system: SK-MEL-28 melanoma
[37] = test system: LOX IMVI melanoma
[38] = test system: TK-10 renal
[39] = test system: ACHN renal
[40] = test system: OVCAR-4 ovarian
[41] = test system: PC-3 prostate
[42] = test system: EKVX NSCLC
[43] = test system: UACC-257 melanoma
[44] = test system: KM12 colon
[45] = test system: UO-31 renal
[46] = test system: BT-549 breast
[47] = test system: U251 CNS
[48] = test system: OVCAR-3 ovarian
[49] = test system: MDA-MB-231 breast
[50] = test system: K-562 leukemia
[51] = test system: T-47D breast
[52] = test system: SF-295 CNS
[53] = test system: HOP-92 NSCLC
[54] = test system: MDA-MB-435
[55] = test system: DU-145 prostate
[56] = test system: SW-620 colon
[57] = test system: COLO 205 colon

SMILES: C#CCn1c(=O)ccn(/C(=C/C(=O)OCC)C(=O)OCC)c1=O
- TGI [1]: 7.8 µM
- TGI [2]: 43.5 µM
- TGI [3]: 32.5 µM
- TGI [4]: 11.8 µM
- TGI [5]: > 100 µM
- TGI [6]: > 56.4 µM
- TGI [7]: > 24.6 µM
- TGI [8]: 29.5 µM
- TGI [9]: > 52.9 µM
- TGI [10]: 39.7 µM
- TGI [11]: 3.3 µM
- TGI [12]: > 100 µM
- TGI [13]: 31 µM
- TGI [14]: 3.99 µM
- TGI [15]: 25.1 µM
- TGI [16]: 10.3 µM
- TGI [17]: 26.9 µM
- TGI [18]: 34.9 µM
- TGI [19]: 13 µM
- TGI [20]: 21.9 µM
- TGI [21]: 3.05 µM
- TGI [22]: 40.7 µM
- TGI [23]: 27.8 µM
- TGI [24]: 18.7 µM
- TGI [25]: 6.35 µM
- TGI [26]: 13.8 µM
- TGI [27]: 30.8 µM
- TGI [28]: 31.8 µM
- TGI [29]: 5.11 µM
- TGI [30]: 13.8 µM
- TGI [31]: 46.5 µM
- TGI [32]: 5.19 µM
- TGI [33]: 41.1 µM
- TGI [34]: 30.2 µM
- TGI [35]: 5.64 µM
- TGI [36]: 21.6 µM
- TGI [37]: 40.3 µM
- TGI [38]: 3.68 µM
- TGI [39]: 3.21 µM
- TGI [40]: 17.8 µM
- TGI [41]: 28.1 µM
- TGI [42]: 20.3 µM
- TGI [43]: 29.6 µM
- TGI [44]: 33.8 µM
- TGI [45]: 25.3 µM
- TGI [46]: 23.2 µM
- TGI [47]: 35.4 µM
- TGI [48]: 13.7 µM
- TGI [49]: 40.9 µM
- TGI [50]: > 100 µM
- TGI [51]: 14.1 µM
- TGI [52]: > 60.5 µM
- TGI [53]: 6.32 µM
- TGI [54]: 28.1 µM
- TGI [55]: 30.7 µM

SMILES: COc1ccc(-c2c3c(nc4nc(SCC(=O)c5ccc(Br)cc5)nc(N)c24)CCCC3)cc1OC
- TGI [1]: > 100 µM
- TGI [2]: 28.6 µM
- TGI [56]: > 100 µM
- TGI [4]: > 100 µM
- TGI [5]: > 100 µM
- TGI [7]: > 100 µM
- TGI [8]: > 100 µM
- TGI [9]: > 100 µM
- TGI [11]: 59.2 µM
- TGI [12]: > 100 µM
- TGI [13]: 21.7 µM
- TGI [14]: > 100 µM
- TGI [15]: > 100 µM
- TGI [16]: > 100 µM
- TGI [17]: > 100 µM
- TGI [18]: > 100 µM
- TGI [19]: > 100 µM
- TGI [20]: > 100 µM
- TGI [21]: > 100 µM
- TGI [22]: > 100 µM
- TGI [23]: > 100 µM
- TGI [24]: > 100 µM
- TGI [25]: > 100 µM
- TGI [57]: > 100 µM
- TGI [26]: > 100 µM
- TGI [28]: > 100 µM
- TGI [29]: > 100 µM
- TGI [30]: > 100 µM
- TGI [31]: 28.1 µM
- TGI [32]: > 100 µM
- TGI [33]: > 100 µM
- TGI [35]: > 100 µM
- TGI [36]: > 100 µM
- TGI [37]: > 100 µM
- TGI [38]: > 100 µM
- TGI [39]: > 100 µM
- TGI [40]: > 100 µM
- TGI [41]: > 100 µM
- TGI [42]: > 100 µM
- TGI [43]: > 100 µM
- TGI [44]: > 100 µM
- TGI [45]: > 100 µM
- TGI [46]: > 100 µM
- TGI [47]: > 100 µM
- TGI [48]: > 100 µM
- TGI [49]: > 100 µM
- TGI [50]: > 100 µM
- TGI [51]: > 100 µM
- TGI [52]: > 100 µM
- TGI [54]: > 100 µM
- TGI [55]: > 100 µM
